Legend:
[1] = system: Alternaria solani (wt); format: cell-based; settings: 0.016 ppm, 7 days after inoculation, relative to compound-free control (100%)
[2] = system: Cercospora sojina; format: cell-based; settings: 4 ppm, 7 days after inoculation, relative to compound-free control (100%)
[3] = system: Phakopsora pachyrhizi (F129L); assay: Protective control of soybean rust on soybeans (PHAKPA P2); format: in vivo; settings: for % PHAKPA (F129L) Disease level P2 at 4 ppm: protective P2, 4 ppm; for % PHAKPA (F129L) Disease level P2 at 16 ppm: protective P2, 16 ppm
[4] = system: Phakopsora pachyrhizi (F129L); assay: Protective control of soybean rust on soybeans (PHAKPA P6); format: in vivo; settings: for % PHAKPA (F129L) Disease level P6 at 4 ppm: protective P6, 4 ppm; for % PHAKPA (F129L) Disease level P6 at 16 ppm: protective P6, 16 ppm

Compound	% PHAKPA (F129L) Disease level P2 at 4 ppm ([3]; F129L isolate) [%]	% PHAKPA (F129L) Disease level P2 at 16 ppm ([3]; F129L isolate) [%]	% PHAKPA (F129L) Disease level P6 at 4 ppm ([4]; F129L isolate) [%]	% PHAKPA (F129L) Disease level P6 at 16 ppm ([4]; F129L isolate) [%]	% PHAKPA (F129L) Disease level P2 at 4 ppm ([3]; soybean rust F129L isolate) [%]	% PHAKPA (F129L) Disease level P2 at 16 ppm ([3]; soybean rust F129L isolate) [%]	% PHAKPA (F129L) Disease level P6 at 4 ppm ([4]; soybean rust F129L isolate) [%]	% PHAKPA (F129L) Disease level P6 at 16 ppm ([4]; soybean rust F129L isolate) [%]	other results
CO/N=C(/C(=O)OC)c1cccc(C)c1CO/N=C(\C)c1cccc(OC(F)(F)F)c1 [drawing 936]									Fungal growth (%) ALTESO wt [1]: 94%; Fungal growth (%) CERCSO [2]: 33%
CNC(=O)/C(=N/OC)c1cccc(C)c1CO/N=C(\C)c1ccc(Cl)c(F)c1OC(F)(F)F [compound 449]	33	10	57	9					
CO/N=C(/C(=O)OC)c1cccc(C)c1CO/N=C(\C)c1c(F)cccc1Cl [compound 283]					83	30	87	22	
CNC(=O)/C(=N/OC)c1cccc(C)c1CO/N=C(\C)c1cccc(N2CC(F)(F)C2)c1 [compound 282]						15		18	
CO/C=C(/C(=O)OC)c1cccc(C)c1CO/N=C(\C)c1ccc(-c2ccccc2)cc1OC(F)(F)F [compound 433]	83	67	80	57					
CNC(=O)/C(=N/OC)c1cccc(C)c1CO/N=C(\C)c1ccc(Cl)c(Cl)c1C(F)(F)F [compound 431]	32	7	40	12					
CNC(=O)/C(=N/OC)c1cccc(C)c1CO/N=C(\C)c1c(F)cc(Br)cc1C(F)(F)F [compound 358]					77	17	83	18	
CO/C=C(/C(=O)OC)c1cccc(C)c1CO/N=C(\C)c1ccccc1C(F)(F)F [compound 244]					14	0	15	2	PHAKPA (F129L) Disease level (%) P2 at 16 ppm ([3]; protective, inoculation 2 days after spraying, 16 ppm, % diseased leaf area): 0%; PHAKPA (F129L) Disease level (%) P6 at 16 ppm ([4]; protective, inoculation six days after spraying, 16 ppm, % diseased leaf area): 2%
CNC(=O)/C(=N/OC)c1cccc(C)c1CO/N=C(\C)c1ccccc1C1CC1 [compound 219]					60	8	87	43	
CNC(=O)/C(=N/OC)c1cccc(C)c1CO/N=C(\C)c1ccc(-c2ccc(F)cc2)cc1C(F)(F)F [compound 426]	7	1	27	10					
CNC(=O)/C(=C/OC)c1cccc(C)c1CO/N=C(\C)c1cccc(C(F)(F)F)c1 [compound 232]					100	73	100	83	
CO/N=C(/C(=O)OC)c1cccc(Br)c1CO/N=C(\C)c1ccccc1 [compound 395]	43	4	67	18					
CNC(=O)/C(=N/OC)c1cccc(C)c1CO/N=C(\C)c1ccc(C)c(C(F)(F)F)c1 [compound 230]					22	1	73	4	
CNC(=O)/C(=N/OC)c1cccc(C)c1CO/N=C(\C)c1ccc(C)cc1C(F)(F)F [compound 327]					23	3	48	4	
CNC(=O)/C(=N/OC)c1cccc(C)c1CO/N=C(/c1ccccc1)C(C)C [compound 389]	28	4	43	3					
CNC(=O)/C(=N/OC)c1cccc(C)c1CO/N=C(\C)c1ccc(Cc2ccccc2)cc1OC(F)(F)F [compound 419]	40	18	60	12					
